This note sets out measurements from EP4772505A1, “COMPOUND FOR DEGRADING ANDROGEN RECEPTOR AND MEDICAL USE THEREOF” (Ubix Therapeutics, Inc., priority 2023, dated 2025).

As a reminder, the DC50 is the concentration giving 50% degradation.

The assay deals with T1, Androgen Receptor (AR) (Homo sapiens, UniProt P10275).
T1 sequence (P10275 1-920): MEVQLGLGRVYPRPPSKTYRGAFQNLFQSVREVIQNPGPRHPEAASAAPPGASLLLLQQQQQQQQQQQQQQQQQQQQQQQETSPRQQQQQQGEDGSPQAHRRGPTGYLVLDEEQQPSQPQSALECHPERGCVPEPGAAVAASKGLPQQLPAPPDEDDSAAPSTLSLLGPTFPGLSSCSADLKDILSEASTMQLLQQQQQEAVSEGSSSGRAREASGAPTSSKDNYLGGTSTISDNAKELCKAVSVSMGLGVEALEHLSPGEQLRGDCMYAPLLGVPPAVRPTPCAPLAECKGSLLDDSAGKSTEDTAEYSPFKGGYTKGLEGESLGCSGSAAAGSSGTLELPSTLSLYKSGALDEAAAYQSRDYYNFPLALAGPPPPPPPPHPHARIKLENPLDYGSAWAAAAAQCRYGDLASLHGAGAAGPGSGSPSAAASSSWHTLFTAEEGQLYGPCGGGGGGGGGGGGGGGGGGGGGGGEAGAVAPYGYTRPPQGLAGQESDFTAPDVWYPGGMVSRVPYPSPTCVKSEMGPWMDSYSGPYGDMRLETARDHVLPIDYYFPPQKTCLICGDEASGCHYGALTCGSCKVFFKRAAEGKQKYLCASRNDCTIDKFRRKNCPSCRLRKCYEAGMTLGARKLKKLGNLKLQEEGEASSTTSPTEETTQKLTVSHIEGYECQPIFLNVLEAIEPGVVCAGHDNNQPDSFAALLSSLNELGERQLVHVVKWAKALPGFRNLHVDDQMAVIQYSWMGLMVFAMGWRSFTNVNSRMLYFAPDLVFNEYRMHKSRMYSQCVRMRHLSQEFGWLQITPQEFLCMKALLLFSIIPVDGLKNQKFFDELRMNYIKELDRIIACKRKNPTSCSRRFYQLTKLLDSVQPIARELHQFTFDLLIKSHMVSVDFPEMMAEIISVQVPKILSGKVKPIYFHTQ
Description: Measurement of AR protein degradation in VCaP cells by Western blotting. The assay is classed as cell-based. Set-up: endogenous in cells; host or cells: VCaP. The note with it: for Dmax at 0.01 µM / Dmax at 0.1 µM / Dmax: VCaP; for Dmax at 0.01 µM / Dmax at 0.1 µM: 20 h, read-out: AR degradation in VCaP cells (%); for Dmax: read-out: AR degradation in VCaP cells Dmax (%); for DC50: read-out: AR degradation in VCaP cells DC50, VCaP cells, 20 hours. As to the method: The amount of AR protein present in LNCaP or VCaP cells was measured after treating them with the synthesized compound. The amount of AR protein was measured using Western blotting. The protocol for the experiments using LNCaP or VCaP cells was as follows.
[Culture] LNCaP cells were resuspended in RPMI1640 medium + HEPES (Hyclone, SH30255.01), 10% FBS (Hyclone, SV30207.02), and 1% Penicillin-streptomycin (Welgene, LS 202-02). 3 x 10^5 cells/mL were seeded in 12-well plates (1 mL per well) and cultured for 3 days. VCaP cells were resuspended in IMDM MEDIUM (Hyclone, SH30228.01), 20% FBS (Hyclone, SV30207.02), and 1% Penicillin-streptomycin (Welgene, LS 202-02), seeded at 9 x 10^5/mL in 1 mL per 12-well plate, and cultured for 3 days.
[Compound Treatment] 10 µL of 100x stock (e.g., 0.1, 1, 10 µM) compound solution at the final compound treatment concentration (e.g., 0.001, 0.01, 0.1 µM) was added to each well in 1 mL media, and cells were harvested after 20 hours. For DC50 measurement, 100x stock (0.01, 0.1, 1, 10, 100, 1000 µM) compound solutions at the final compound treatment concentration (0.0001, 0.001, 0.01, 0.1, 1, 10 µM) were used.
[Cell lysis] The cell pellet was suspended using 1% SDS lysis buffer (50 mM Tris, 1 mM EDTA, 1% SDS, pH 8.0, 0.5 mM PMSF, 1x Protease/Phosphatase inhibitor Cocktail (Cell Signaling Technology, 5872S)), and sonication (70% AMP, 10 cycles (30 sec ON/59 sec OFF)) was performed. After centrifugation at 4°C and 20,000 g for 20 minutes, the cell lysate was obtained and transferred to a new tube.
[Protein Quantification] A BCA protein assay (SMART™ BCA Protein Assay Kit, iNtRON Biotechnology, 21071) was performed using a 96-well microplate. 5 µL of cell lysate and 5 µL of 1% SDS lysis buffer were added to each well of the 96-well plate, followed by an additional 200 µL of BCA reagent (Reagent A: Reagent B = 50:1). The wells were incubated at 37°C for 30 minutes and cooled to room temperature for 10 minutes. After shaking for 10 seconds, the absorbance was measured at a wavelength of 562 nm. The unknown protein concentration was determined using a BSA standard curve (0, 0.125, 0.25, 0.5, 1, 2 mg/mL). Western blotting samples were prepared by mixing cell lysate, 1% SDS lysis buffer, 4x NuPAGE™ LDS Sample buffer (Invitrogen, NP0008), and 10X NuPAGE™ Sample Reducing Agent (Invitrogen, NP0009) and boiling at 70°C for 10 minutes.
[Electrophoresis] 10 µg of protein sample was loaded into each well of a NuPAGE™ 4 to 12%, Bis-Tris, 1.0 mm Mini Protein Gel, 15-well, 17-well, or 26-well (Invitrogen, NP0323BOX, NP0329BOX, or WG1403BOX) and electrophoresed for 40 minutes using NuPAGE™MES SDS Running Buffer (Invitrogen, NP0002) at 200 V (constant V).
[Transfer] Transfer was performed for 15 or 18 minutes using the electrophoresed gel and the Trans-Blot® Turbo™ Transfer Starter System (Bio-RAD, #17001918, Mini Nitrocellulose) at 1.3 A (constant A) and 25 V (limit V). To confirm protein transfer, 15 mL of Ponceau S solution (Sigma, P7170-1L) was used to stain for 1 minute, and then washed to check the degree of transfer.
[Blocking] The membrane for AR and GAPDH detection was blocked with 5% skim milk/0.2% TBST (Skim milk: BD, 232100/ 20X TBS: Biosesang, TR2008-100-00/ 10% Tween 20 Solution: Bio-RAD, #161-0781) for 45 minutes.
[Antibodies and Detection] Primary AR antibody (Androgen Receptor: CST, 5153S) was mixed with 5% skim milk/0.2% TBST at a ratio of 1:1,000 and reacted at room temperature for 3 hours or at 4°C overnight. Primary GAPDH antibody (CST, 2118S) was mixed with 5% skim milk/0.2% TBST at a ratio of 1:2,000 and reacted at room temperature for 3 hours or at 4°C overnight. Afterwards, TBST (0.2% Tween 20) was used for washing three times every 5 minutes. Secondary antibody to AR antibody, Anti-rabbit IgG, HRP-linked Antibody (CST, 7074S), was mixed with 5% skim milk/0.2% TBST at a ratio of 1:5,000 and reacted at room temperature for 45 minutes. […]
(In general: A western blot detects proteins with antibodies after separation by electrophoresis.)

In the case of `N#Cc1ccc(N2CCC(C(=O)Nc3ccc(OC4CCN(CC5CCN(c6ccc(NC7CCC(=O)NC7=O)cc6F)CC5)CC4)cn3)CC2)cc1C(F)(F)F` (stereo not drawn) [Example 1, 1-(4-cyano-3-(trifluoromethyl)phenyl)-N-(5-((1-((1-(4-((2,6-dioxopiperidin-3-yl)amino)-2-fluorophenyl)piperidin-4-yl)methyl)piperidin-4-yl)oxy)pyridin-2-yl)piperidine-4-carboxamide], the Dmax at 0.01 µM turned out to be 89% and the Dmax at 0.1 µM was found to be 99%.

Turning to `N#Cc1ccc(N2CCC(C(=O)Nc3ccc(OC4CCN(CC5CCN(c6ccc(N[C@H]7CCC(=O)NC7=O)cc6F)CC5)CC4)cn3)CC2)cc1C(F)(F)F` [Example 2, (S)-1-(4-cyano-3-(trifluoromethyl)phenyl)-N-(5-((1-((1-(4-((2,6-dioxopiperidin-3-yl)amino)-2-fluorophenyl)piperidin-4-yl)methyl)piperidin-4-yl)oxy)pyridin-2-yl)piperidine-4-carboxamide], the Dmax at 0.01 µM stood at 83%, the Dmax at 0.1 µM amounted to 99%, the Dmax worked out at 99% and the DC50 turned out to be 190 pM.

For the compound `N#Cc1ccc(N2CCC(C(=O)Nc3ccc(OC4CCN(CC5CCN(c6ccc(N[C@@H]7CCC(=O)NC7=O)cc6F)CC5)CC4)cn3)CC2)cc1C(F)(F)F` [Example 3, (R)-1-(4-cyano-3-(trifluoromethyl)phenyl)-N-(5-((1-((1-(4-((2,6-dioxopiperidin-3-yl)amino)-2-fluorophenyl)piperidin-4-yl)methyl)piperidin-4-yl)oxy)pyridin-2-yl)piperidine-4-carboxamide], the Dmax at 0.01 µM was determined as 72% and the Dmax at 0.1 µM amounted to 96%.

Consider `N#Cc1ccc(N2CCC(C(=O)Nc3ccc(OC4CCN(CC5CCN(c6ccc(NC7CCC(=O)NC7=O)cc6F)CC5)CC4)nn3)CC2)cc1C(F)(F)F` (stereo not drawn) [Example 7, 1-(4-cyano-3-(trifluoromethyl)phenyl)-N-(6-((1-((1-(4-((2,6-dioxopiperidin-3-yl)amino)-2-fluorophenyl)piperidin-4-yl)methyl)piperidin-4-yl)oxy)pyridazin-3-yl)piperidine-4-carboxamide], for which the Dmax at 0.01 µM is 94% and the Dmax at 0.1 µM came out at 100%.

As for `N#Cc1ccc(N2CCC(C(=O)Nc3ccc(OC4CCN(CC5CCN(c6ccc(NC7CCC(=O)NC7=O)cc6F)CC5)CC4)cn3)CC2)cc1Cl` (stereo not drawn) [Example 8, 1-(3-chloro-4-cyanophenyl)-N-(5-((1-((1-(4-((2,6-dioxopiperidin-3-yl)amino)-2-fluorophenyl)piperidin-4-yl)methyl)piperidin-4-yl)oxy)pyridin-2-yl)piperidine-4-carboxamide], the Dmax at 0.01 µM stood at 94% and the Dmax at 0.1 µM was 99%.

As for `N#Cc1ccc(N2CCC(C(=O)Nc3ccc(OC4CCN(CC5CCN(c6ccc(N[C@H]7CCC(=O)NC7=O)cc6F)CC5)CC4)cn3)CC2)cc1Cl` [Example 9, (S)-1-(3-chloro-4-cyanophenyl)-N-(5-((1-((1-(4-((2,6-dioxopiperidin-3-yl)amino)-2-fluorophenyl)piperidin-4-yl)methyl)piperidin-4-yl)oxy)pyridin-2-yl)piperidine-4-carboxamide], the Dmax at 0.01 µM was determined as 94%, the Dmax at 0.1 µM was 99%, the Dmax stood at 99% and the DC50 turned out to be 100 pM.

Consider `N#Cc1ccc(N2CCC(C(=O)Nc3ccc(OC4CCN(CC5CCN(c6ccc(N[C@@H]7CCC(=O)NC7=O)cc6F)CC5)CC4)cn3)CC2)cc1Cl` [Example 10, (R)-1-(3-chloro-4-cyanophenyl)-N-(5-((1-((1-(4-((2,6-dioxopiperidin-3-yl)amino)-2-fluorophenyl)piperidin-4-yl)methyl)piperidin-4-yl)oxy)pyridin-2-yl)piperidine-4-carboxamide], for which the Dmax at 0.01 µM is 85% and the Dmax at 0.1 µM was 99%.
